In US20050043315A1, “Aminopyrimidine compounds, processes for their preparation and pharmaceutical compositions containing them” (priority 2002, published 2005) one finds melting point data, which are given here for 39 molecules.

As to `CC(C)Oc1cccc(-c2nc(N)ncc2-c2ccc(=O)n(C(C)C)n2)c1` [Example 196, 6-[2-Amino-4-(3-isopropoxyphenyl)-5-pyrimidinyl]-2-isopropyl-3(2H)-pyridazinone], the melting point was determined as 143 °C.
For `CCCCOc1ccc(-c2nc(N)ncc2-c2ccc(=O)n(C(C)C)n2)cc1` [Example 197, 6-[2-Amino-4-(4-butoxyphenyl)-5-pyrimidinyl]-2-isopropyl-3(2H)-pyridazinone], the melting point stood at 143 °C.
Molecule `CCCCOc1ccccc1-c1nc(N)ncc1-c1ccc(=O)n(C(C)C)n1` [Example 198, 6-[2-Amino-4-(2-butoxyphenyl)-5-pyrimidinyl]-2-isopropyl-3(2H)-pyridazinone] registered a melting point of 149 °C.
As for `CCCCOc1cccc(-c2nc(N)ncc2-c2ccc(=O)n(C(C)C)n2)c1` [Example 199, 6-[2-Amino-4-(3-butoxyphenyl)-5-pyrimidinyl]-2-isopropyl-3(2H)-pyridazinone], the melting point was determined as 130 °C.
In the case of `CC(C)COc1ccc(-c2nc(N)ncc2-c2ccc(=O)n(C(C)C)n2)cc1` [Example 200, 6-[2-Amino-4-(4-isobutoxyphenyl)-5-pyrimidinyl]-2-isopropyl-3(2H)-pyridazinone], the melting point was 166 °C.
Molecule `CC(C)COc1ccccc1-c1nc(N)ncc1-c1ccc(=O)n(C(C)C)n1` [Example 201, 6-[2-Amino-4-(2-isobutoxyphenyl)-5-pyrimidinyl]-2-isopropyl-3(2H)-pyridazinone] came in with a melting point of 189 °C.
`CC(C)COc1cccc(-c2nc(N)ncc2-c2ccc(=O)n(C(C)C)n2)c1` [Example 202, 6-[2-Amino-4-(3-isobutoxyphenyl)-5-pyrimidinyl]-2-isopropyl-3(2H)-pyridazinone] came in with a melting point of 137 °C.
In the case of `CC(C)CCOc1ccccc1-c1nc(N)ncc1-c1ccc(=O)n(C(C)C)n1` [Example 204, 6-{2-Amino-4-(2-(isopentyloxy)phenyl]-5-pyrimidinyl}-2-isopropyl-3(2H)-pyridazinone] it was 155 °C; in that of `CC(C)CCOc1cccc(-c2nc(N)ncc2-c2ccc(=O)n(C(C)C)n2)c1` [Example 205, 6-{2-Amino-4-[3-(isopentyloxy)phenyl]-5-pyrimidinyl}-2-isopropyl-3(2H)-pyridazinone], 97 °C.
On to `CCCCCCOc1ccc(-c2nc(N)ncc2-c2ccc(=O)n(C(C)C)n2)cc1` [Example 206, 6-{2-Amino-4-[4-(hexyloxy)phenyl]-5-pyrimidinyl}-2-isopropyl-3(2H)-pyridazinone], for which the melting point came to 184 °C.
The value for `CCCCCCOc1ccccc1-c1nc(N)ncc1-c1ccc(=O)n(C(C)C)n1` [Example 207, 6-{2-Amino-4-[2-(hexyloxy)phenyl]-5-pyrimidinyl}-2-isopropyl-3(2H)-pyridazinone] was 92 °C.
`CCCCCCOc1cccc(-c2nc(N)ncc2-c2ccc(=O)n(C(C)C)n2)c1` [Example 208, 6-{2-Amino-4-[3-(hexyloxy)phenyl]-5-pyrimidinyl}-2-isopropyl-3(2H)-pyridazinone] showed a melting point of 121 °C.
For the molecule `CC(C)n1nc(-c2cnc(N)nc2-c2ccc(OCCF)cc2)ccc1=O` [Example 209, 6-{2-Amino-4-[4-(2-fluoroethoxy)phenyl]-5-pyrimidinyl}-2-isopropyl-3(2H)-pyridazinone], the melting point stood at 200 °C.
On to `CC(C)n1nc(-c2cnc(N)nc2-c2ccccc2OCCF)ccc1=O` [Example 210, 6-{2-Amino-4-[2-(2-fluoroethoxy)phenyl]-5-pyrimidinyl}-2-isopropyl-3(2H)-pyridazinone], for which the melting point came out at 171 °C.
In the case of `CC(C)n1nc(-c2cnc(N)nc2-c2cccc(OCCF)c2)ccc1=O` [Example 211, 6-{2-Amino-4-[3-(2-fluoroethoxy)phenyl]-5-pyrimidinyl}-2-isopropyl-3(2H)-pyridazinone] it was 123 °C; in that of `CC(C)n1nc(-c2cnc(N)nc2-c2ccccc2OCCCF)ccc1=O` [Example 215, 6-{2-Amino-4-[2-(3-fluoropropoxy)phenyl]-5-pyrimidinyl}-2-isopropyl-3(2H)-pyridazinone], 200 °C.
Regarding `CC(C)n1nc(-c2cnc(N)nc2-c2cccc(OCCCF)c2)ccc1=O` [Example 216, 6-{2-Amino-4-[3-(3-fluoropropoxy)phenyl]-5-pyrimidinyl}-2-isopropyl-3(2H)-pyridazinone], the melting point came to 123 °C.
On to `CC(C)n1nc(-c2cnc(N)nc2-c2ccc(OCCN(C)C)cc2)ccc1=O` [Example 217, 6-(2-amino-4-{4-(2-(dimethylamino)ethoxy]phenyl}-5-pyrimidinyl)-2-isopropyl-3(2H)-pyridazinone], for which the melting point amounted to 162 °C.
In the case of `CC(C)n1nc(-c2cnc(N)nc2-c2ccccc2OCCN(C)C)ccc1=O` [Example 218, 6-(2-Amino-4-{2-[2-(dimethylamino)ethoxy]phenyl}-5-pyrimidinyl)-2-isopropyl-3(2H)-pyridazinone] it was 198 °C.
In the case of `CC(C)n1nc(-c2cnc(N)nc2-c2cccc(OCCN(C)C)c2)ccc1=O` [Example 219, 6-(2-Amino-4-{3-[2-(dimethylamino)ethoxy]phenyl}-5-pyrimidinyl)-2-isopropyl-3(2H)-pyridazinone] it was 111 °C.
`CC(C)n1nc(-c2cnc(N)nc2-c2ccc(OCCN3CCOCC3)cc2)ccc1=O` [Example 220, 6-(2-Amino-4-{4-[2-(4-morpholinyl)ethoxy]phenyl}-5-pyrimidinyl)-2-isopropyl-3(2H)-pyridazinone] registered a melting point of 161 °C.
`CC(C)n1nc(-c2cnc(N)nc2-c2ccccc2OCCN2CCOCC2)ccc1=O` [Example 221, 6-(2-Amino-4-{2-[2-(4-morpholinyl)ethoxy]phenyl}-5-pyrimidinyl)-2-isopropyl-3(2H)-pyridazinone]: the melting point was determined as 115 °C.
In turn, `CC(C)n1nc(-c2cnc(N)nc2-c2cccc(OCCN3CCOCC3)c2)ccc1=O` [Example 222, 6-(2-Amino-4-{3-[2-(4-morpholinyl)ethoxy]phenyl}-5-pyrimidinyl)-2-isopropyl-3(2H)-pyridazinone] returned a melting point of 68 °C.
As to `CC(C)n1nc(-c2cnc(N)nc2-c2ccc(Br)cc2)ccc1=O` [Example 235, 6-[2-Amino-4-(4-bromophenyl)-5-pyrimidinyl]-2-isopropyl-3(2H)-pyridazinone], the melting point was determined as 204 °C.
For the molecule `CC(C)n1nc(-c2cnc(N)nc2-c2cccc(Br)c2)ccc1=O` [Example 236, 6-[2-Amino-4-(3-bromophenyl)-5-pyrimidinyl]-2-isopropyl-3(2H)-pyridazinone], the melting point fell in the range of 238 to 240 °C.
`CC(C)n1nc(-c2cnc(N)nc2-c2c(F)cccc2F)ccc1=O` [Example 237, 6-[2-Amino-4-(2,6-difluorophenyl)-5-pyrimidinyl]-2-isopropyl-3(2H)-pyridazinone] came in with a melting point of 244 °C.
`CC(C)n1nc(-c2cnc(N)nc2-c2cc(F)cc(F)c2)ccc1=O` [Example 238, 6-[2-Amino-4-(3,5-difluorophenyl)-5-pyrimidinyl]-2-isopropyl-3(2H)-pyridazinone] registered a melting point of 234 °C.
In the case of `CC(C)n1nc(-c2cnc(N)nc2-c2c(Cl)cccc2Cl)ccc1=O` [Example 239, 6-[2-Amino-4-(2,6-dichlorophenyl)-5-pyrimidinyl]-2-isopropyl-3(2H)-pyridazinone] it was 208 °C; in that of `Cc1cccc(C)c1-c1nc(N)ncc1-c1ccc(=O)n(C(C)C)n1` [Example 240, 6-[2-Amino-4-(2,6-dimethylphenyl)-5-pyrimidinyl]-2-isopropyl-3(2H)-pyridazinone], 212 °C.
The molecule `CC(C)n1nc(-c2cnc(N)nc2-c2ccoc2)ccc1=O` [Example 241, 6-[2-Amino-4-(3-furyl)-5-pyrimidinyl]-2-isopropyl-3(2H)-pyridazinone] showed a melting point of 216 °C.
The value for `CC(C)n1nc(-c2cnc(N)nc2-c2ccsc2)ccc1=O` [Example 242, 6-[2-Amino-4-(3-thienyl)-5-pyrimidinyl]-2-isopropyl-3(2H)-pyridazinone] was 234 °C; that for `COc1cccc(OC)c1-c1nc(N)ncc1-c1ccc(=O)n(C(C)C)n1` [Example 243, 6-[2-Amino-4-(2,6-dimethoxyphenyl)-5-pyrimidinyl]-2-isopropyl-3(2H)-pyridazinone] was 260 °C.
In the case of `Cn1nc(-c2cnc(N)nc2-c2ccoc2)ccc1=O` [Example 244, 6-[2-Amino-4-(3-furyl)-5-pyrimidinyl]-2-methyl-3(2H)-pyridazinone] it was 241 °C.
Take `Cn1nc(-c2cnc(N)nc2-c2ccsc2)ccc1=O` [Example 245, 6-[2-Amino-4-(3-thienyl)-5-pyrimidinyl]-2-methyl-3(2H)-pyridazinone]: the melting point came out at 252 °C.
In the case of `CN(C)c1ncc(-c2ccc(=O)n(C)n2)c(-c2ccc(Cl)cc2)n1` [Example 246, 6-[4-(4-chlorophenyl)-2-(dimethylamino)-5-pyrimidinyl]-2-methyl-3(2H)-pyridazinone] it was 166 °C; in that of `COc1ccc(-c2nc(N(C)C)ncc2-c2ccc(=O)n(C)n2)cc1` [Example 247, 6-[2-(Dimethylamino)-4-(4-methoxyphenyl)-5-pyrimidinyl]-2-methyl-3(2H)-pyridazinone], 165 °C.
Molecule `CN(C)c1ncc(-c2ccc(=O)n(C)n2)c(-c2cccc(F)c2)n1` [Example 248, 6-[2-(Dimethylamino)-4-(3-fluorophenyl)-5-pyrimidinyl]-2-methyl-3(2H)-pyridazinone] gave a melting point of 184 °C.
In the case of `COc1ccc(-c2nc(N(C)C)ncc2-c2ccc(=O)n(C)n2)cc1F` [Example 249, 6-[2-(Dimethylamino)-4-(3-fluoro-4-methoxyphenyl)-5-pyrimidinyl]-2-methyl-3(2H)-pyridazinone] it was 158 °C; in that of `COCC(C)n1nc(-c2cnc(N)nc2-c2ccccc2)ccc1=O` (stereo not drawn) [Example 250, 6-(2-Amino-4-phenyl-5-pyrimidinyl)-2-(2-methoxy-1-methylethyl)-3(2H)-pyridazinone], 180 to 181 °C.
